{"source": "patent US20260234112A1", "about": "“COMPOUNDS, COMPOSITIONS, AND METHODS OF USE THEREOF” (Type6 Therapeutics, Inc., priority 2023, published 2026)", "molecular_target": "T1, Cdk2(2-298) (Homo sapiens, UniProt P24941)", "T1 construct": "Biotinylated N-terminal avi-tagged Cdk2(2-298) or Cdk1(1-297) was immobilized", "assay": "Surface Plasmon Resonance (SPR) compound interaction, Biacore 8K", "format": "binding", "details": "single-cycle kinetics (SCK, \"S\"), dissociation 1800 sec, read-out: Activity rating (KD)", "summary_of_the_method": "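Biotinylated N-terminal avi-tagged Cdk2(2-298) captured on streptavidin chip at 2500–3000 RU in 25 mM HEPES, 150 mM NaCl, 0.05% Tween20, pH 7.5, 1% DMSO final. Eight 3-fold compound concentrations injected 120 sec at 30 μl/min, multi- or single-cycle kinetics; dissociation 180 sec (MCK) or 1800 sec (SCK).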", "data": [{"compound": "N[C@H]1CC[C@H](Nc2nccc(-c3cccnc3Sc3ccc(NS(=O)(=O)c4ccccc4)cc3F)n2)CC1", "note": "[Compound 110, N-(4-((3-(2-(((1r,4r)-4-Aminocyclohexyl)amino)pyrimidin-4-yl)pyridin-2-yl)thio)-3-fluorophenyl) benzenesulfonamide]", "values": [{"measurement": "Kd", "value": "11 to 100", "unit": "nM"}]}, {"compound": "N[C@H]1CC[C@H](Nc2nccc(-c3cccnc3Sc3ccc(NS(=O)(=O)c4cccc5ccccc45)cc3F)n2)CC1", "note": "[Compound 111, N-(4-((3-(2-(((1r,4r)-4-Aminocyclohexyl)amino)pyrimidin-4-yl)pyridin-2-yl)thio)-3-fluorophenyl) naphthalene-1-sulfonamide]", "values": [{"measurement": "Kd", "value": "11 to 100", "unit": "nM"}]}, {"compound": "O=S(=O)(Nc1ccc(Sc2ncccc2-c2ccnc(N[C@H]3CCCNC3)n2)c(F)c1)c1cccc2ccccc12", "note": "[Compound 113, N-[3-fluoro-4-[[3-[2-[[(3S)-3-piperidyl]amino]pyrimidin-4-yl]-2-pyridyl]sulfanyl]phenyl] naphthalene-1-sulfonamide]", "values": [{"measurement": "Kd", "value": "100 to 1000", "unit": "nM"}]}, {"compound": "N[C@H]1CC[C@H](Nc2nccc(-c3cnccc3Sc3ccc(NS(=O)(=O)c4ccccc4Cl)cc3F)n2)CC1", "note": "[Compound 116, N-[4-[[3-[2-[((1r,4r)4 aminocyclohexyl)amino]pyrimidin-4-yl]-4-pyridyl]thio]-3-fluoro-phenyl] 2-chlorobenzenesulfonamide]", "values": [{"measurement": "Kd", "value": "≤ 10", "unit": "nM"}]}, {"compound": "N[C@H]1CC[C@H](Nc2nccc(-c3cnccc3Sc3ccc(NS(=O)(=O)c4ccccc4)cc3F)n2)CC1", "note": "[Compound 117, N-[4-(1r,4r)[[3-[2-[(4-aminocyclohexyl)amino]pyrimidin-4-yl]-4-pyridyl]sulfanyl]-3-fluorophenyl] benzenesulfonamide]", "values": [{"measurement": "Kd", "value": "11 to 100", "unit": "nM"}]}, {"compound": "N[C@H]1CC[C@H](Nc2nccc(-c3cnccc3Sc3ccc(NS(=O)(=O)c4cccc5ccccc45)cc3F)n2)CC1", "note": "[Compound 118, N-[4-(1r,4r)[[3-[2-[(4-Aminocyclohexyl)amino]pyrimidin-4-yl]-4-pyridyl]sulfanyl]-3-fluorophenyl]naphthalene-1-sulfonamide]", "values": [{"measurement": "Kd", "value": "100 to 1000", "unit": "nM"}]}, {"compound": "O=S(=O)(Nc1ccc(Oc2ncncc2-c2ccnc(N[C@H]3CCCNC3)n2)c(F)c1)c1ccccc1Cl", "note": "[Compound 127, N-[3-fluoro-4-[5-[2-[[(3S)-3-piperidyl]amino]pyrimidin-4-yl]pyrimidin-4-yl]oxyphenyl] 2-chlorobenzenesulfonamide]", "values": [{"measurement": "Kd", "value": "11 to 100", "unit": "nM"}]}, {"compound": "N[C@H]1CC[C@H](Nc2nccc(-c3cncnc3Oc3ccc(NS(=O)(=O)c4ccccc4Cl)cc3F)n2)CC1", "note": "[Compound 128, N-[4-[5-[2-[(1r,4r)(4-aminocyclohexyl)amino]pyrimidin-4-yl]pyrimidin-4-yl]oxy-3-fluorophenyl] 2-chlorobenzenesulfonamide]", "values": [{"measurement": "Kd", "value": "≤ 10", "unit": "nM"}]}, {"compound": "O=S(=O)(Nc1ccc(Oc2ncncc2-c2ccnc(N[C@H]3CCCNC3)n2)c(F)c1)c1ccccc1", "note": "[Compound 129, N-[3-fluoro-4-[5-[2-[[(3S)-3-piperidyl]amino]pyrimidin-4-yl]pyrimidin-4-yl]oxy-phenyl] benzenesulfonamide]", "values": [{"measurement": "Kd", "value": "100 to 1000", "unit": "nM"}]}, {"compound": "N[C@H]1CC[C@H](Nc2nccc(-c3cncnc3Oc3ccc(NS(=O)(=O)c4ccccc4)cc3F)n2)CC1", "note": "[Compound 130, N-[4-[5-[2-[(1r,4r)(4-aminocyclohexyl)amino]pyrimidin-4-yl]pyrimidin-4-yl]oxy-3-fluoro-phenyl] benzenesulfonamide]", "values": [{"measurement": "Kd", "value": "1000 to 5000", "unit": "nM"}]}, {"compound": "N[C@H]1CC[C@H](Nc2nccc(-c3ccncc3Oc3ccc(NS(=O)(=O)c4ccccc4Cl)cc3F)n2)CC1", "note": "[Compound 131, N-[4-(1r,4r)[[4-[2-[(4-aminocyclohexyl)amino]pyrimidin-4-yl]-3-pyridyl]oxy]-3-fluorophenyl] 2-chlorobenzenesulfonamide]", "values": [{"measurement": "Kd", "value": "11 to 100", "unit": "nM"}]}, {"compound": "N[C@H]1CC[C@H](Nc2nccc(-c3ncccc3Oc3ccc(NS(=O)(=O)c4ccccc4Cl)cc3F)n2)CC1", "note": "[Compound 132, N-[4-[[2-[2-(1r,4r)[(4-Aminocyclohexyl)amino]pyrimidin-4-yl]-3-pyridyl]oxy]-3-fluoro-phenyl] 2-chlorobenzenesulfonamide]", "values": [{"measurement": "Kd", "value": "100 to 1000", "unit": "nM"}]}]}
